Experimental findings from ChEMBL document CHEMBL4619770, “Comatulins A-E, Taurine-Conjugated Anthraquinones from the Australian Crinoid Comatula rotalaria” (J Nat Prod, 2020) are described below.

Molecules are shown by their SMILES. pEC50, pIC50: −log10 of the molar value. The source made the active and inactive calls. The calls are words filed in the database; no cut-off is given here.

Assay [1] concerns Human immunodeficiency virus 1. In words: Antiviral activity against HIV-1 assessed as reduction in viral replication. In kind it is functional, organism-based.
For assay [2], the system named is Human immunodeficiency virus 1. The assay can be described thus: Antiviral activity against HIV-1 NL4.3 infected in CEM-GXR T cells assessed as reduction in viral replication after 72 hrs by flow cytometry. In kind it is functional, organism-based. The settings on record: Human immunodeficiency virus 1, NL4.3, CEM-GXR. A general note: A flow cytometer gives signals particle by particle.

The subject of assay [3] is Haemonchus contortus. The assay can be described thus: Anti-helmintic activity against fourth stage L4 Haemonchus contortus larvae assessed as induction of eviscerated phenotype measured on day 7 by light microscopic method. In kind it is functional, organism-based.
Assay [4] relates to Haemonchus contortus. The assay can be described thus: Anti-helmintic activity against fourth stage L4 Haemonchus contortus larvae assessed as induction of changes in internal structure measured on day 7 by light microscopic method. The format is functional, organism-based.
In assay [5] the test system is Haemonchus contortus. In words: Anti-helmintic activity against third-stage Haemonchus contortus larvae assessed as reduction in development of xL3 stage larvae to L4 stage at low concentration after 7 days. In kind it is functional, organism-based.
Assay [6] concerns Haemonchus contortus. In words: Anti-helmintic activity against third-stage Haemonchus contortus larvae assessed as reduction in larval motility after 72 hrs. In kind it is functional, organism-based.
The test system of assay [7] is Haemonchus contortus. In words: Anti-helmintic activity against third-stage Haemonchus contortus larvae assessed as reduction in development of xL3 stage larvae to L4 stage at 100 uM after 7 days. In kind it is functional, organism-based.
The test system of assay [8] is Haemonchus contortus. The assay can be described thus: Anti-helmintic activity against third-stage Haemonchus contortus larvae assessed as reduction in development of xL3 stage larvae to L4 stage after 7 days. The format is functional, organism-based. As to conditions: 168 h.
Assay [9] concerns Haemonchus contortus. The assay can be described thus: Anti-helmintic activity against third-stage Haemonchus contortus larvae assessed as induction of eviscerated phenotype at 100 uM measured on day 7 by light microscopic analysis relative to control. In kind it is functional.
The test system of assay [10] is Human immunodeficiency virus 1. The assay can be described thus: Antiviral activity against HIV-1 assessed as reduction in viral replication at 0.1 uM. Also noted: scale not given: the % may be the effect or the level left. In kind it is functional.

In general, pEC50 refers to −log10 of the EC50, conventionally taken in molar units. For the compound `COc1cc(OC)c2c(c1)C(=O)c1c(C(C)=O)c(O)cc(O)c1C2=O`, the negative logarithm of the EC50 (pEC50) in assay [1] was below 4.00.
As to `CCCC(=O)c1c(O)cc(O)c2c1C(=O)c1cc(OC)c(OC)c(O)c1C2=O`, the pEC50 in assay [1] is below 4.00.
The same measure, in the same setting: the same measure for `COc1cc(O)c2c(c1)C(=O)c1c(C(C)=O)c(O)c(CNCCS(=O)(=O)O)c(O)c1C2=O`: below 4.00.
Regarding `CCCc1cc(=O)c2c(O)cc3cc(O)cc(OC)c3c2o1` [COMAPARVIN], the pEC50 in [2] was 5.12; in assay [1], 5.24.
As for `CCCC(=O)c1c(O)c(CNCCS(=O)(=O)O)c(O)c2c1C(=O)c1cc(OC)cc(O)c1C2=O`, in assay [1], the pEC50 is below 4.00.
Consider `O=C1c2cc(O)cc(O)c2C(=O)c2c(O)cc(O)cc21`, for which, in assay [1], the pEC50 was below 4.00.
For `CC(=O)c1c(O)cc(O)c2c1C(=O)c1cc(O)cc(O)c1C2=O`, the pEC50 in [1] was below 4.00.
As usually defined, the pIC50 is −log10 of the IC50, conventionally taken in molar units. `CCCc1cc(=O)c2c(OC)c(OC)c3cc(OC)cc(OC)c3c2o1`: the outcome in the assay on Haemonchus contortus [3] and in the assay with Haemonchus contortus [5] was inactive. In addition, the outcome with Haemonchus contortus [4] and with Haemonchus contortus [7] was Active. In addition, the pIC50 in the assay with Haemonchus contortus [6] is 4.52; with Haemonchus contortus [8], 4.51. The pEC50 in assay [1] is below 4.00. Further, the Activity in the assay with Haemonchus contortus [9] worked out at 51%.
Turning to `CCCC(=O)c1c(O)cc(O)c2c1C(=O)c1cc(O)cc(O)c1C2=O`, in the assay with Haemonchus contortus [7], the outcome was Active. In assay [1], the pEC50 was below 4.00.
As for `CCCC(=O)c1c(O)cc(O)c2c1C(=O)c1cc(OC)cc(OC)c1C2=O`, the pEC50 in assay [1] was below 4.00.
Same read-out and setting: the same measure for `COc1cc(O)c2c(c1)C(=O)c1c(C(C)=O)c(O)cc(O)c1C2=O`: below 4.00.
With `CC(C)(C)NC(=O)[C@@H]1CN(Cc2cccnc2)CCN1C[C@@H](O)C[C@@H](Cc1ccccc1)C(=O)N[C@H]1c2ccccc2C[C@H]1O.O` [INDINAVIR], the Activity in [10] amounted to 72%.
As to `CCCc1cc(=O)c2c(O)c(OC)c3cc(O)cc(OC)c3c2o1`, the pEC50 in assay [1] was below 4.00.
The same measure, in the same setting: the same measure for `CCCC(=O)c1c(O)cc(O)c2c1C(=O)c1cc(OC)cc(O)c1C2=O`: below 4.00.
